In ChEMBL document CHEMBL3272116, “Synthesis and evaluation of brain catecholamine depletion by N-alkyl derivatives of 6-aminodopamine” (1976):

Assays:
Mus musculus [1] = assay: Depletion of norepinephrine in mouse brain at 50 ug administered intracranially at 24 hrs interval on three successive days measured 24 hrs post last dose relative to control; type: functional
Mus musculus [2] = assay: Depletion of dopamine in mouse brain at 50 ug administered intracranially at 24 hrs interval on three successive days measured 24 hrs post last dose relative to control; type: functional

## NCCc1cc(O)c(O)cc1N
Mus musculus [1]
  Activity: 34%
Mus musculus [2]
  Activity: 106%

## CN(C)CCc1cc(O)c(O)cc1N
Mus musculus [1]
  Activity: 88%
Mus musculus [2]
  Activity: 94%

## CC(C)NCCc1cc(O)c(O)cc1N
Mus musculus [1]
  Activity: 81%

## Br.CNCCc1cc(O)c(O)cc1N
Mus musculus [1]
  Activity: 66%
